Assays:
[1] = test system: human BxPC-3 pancreatic cancer cells; assay: In vitro PDT of hypoxic cells, MTT cell viability; type: cell-based; details: PDT treatment alone (RB 1 μM + 532 nm LED 30 sec)
Method: Having determined the ability of the CaO2 NPs to improve the light induced ROS generation of Rose Bengal in a simulated hypoxic environment, the next step was to determine if this improved ROS generation would also result in increased Rose Bengal mediated PDT killing of human BxPC-3 pancreatic cancer cells.
BxPc3 cells were seeded in a 96 well plate at a density of 5×10^4 cells per well. The cells were cultured in an anaerobic cabinet (O2/CO2/N2, 0.1:5:94.9 v/v/v) for 3 hours to generate a hypoxic environment and then spiked with RB (1 μM) and incubated for a further 3 hours under anaerobic conditions. This concentration of RB is much lower than normally used in PDT cell-based studies (˜5 μM) and was chosen to enable a moderate PDT effect in the absence of CaO2 NPs so that any beneficial effect provided by the NPs could be determined (Chan et al., Tissue engineering, 13(1): 73-85, 2007). The cells were then incubated with an ethanol: PBS (50:50) solution of the NPs (50 μM) for 5 min before being exposed to light from a 532 nm emitting LED for 30 sec. The NP solution was then removed, the cells washed with fresh PBS and incubated in fresh media under normoxic conditions for a further 21 hours before cell viability was determined using a MTT assay. […]

[2] = test system: Mia-PaCa 2 xenograft tumours; assay: PDT efficacy in vivo, tumour volume; parameters: species or system SCID mice; details: PDT alone (intratumoural Rose Bengal 100 μL, 0.1 mg/mL + white light 3 min); 5 days after treatment
Method: All animals employed in this study were treated humanely and in accordance with licenced procedures under the UK Animals (Scientific Procedures) Act 1986. Mia-PaCa 2 xenograft tumours were established as described above. Once the tumours had reached an average volume of 254±17 mm^3 the mice were randomly separated into 4 groups (n=5). Group 1 involved untreated animals, group 2 the PDT only group, Group 3 the 1-CaO2 NPs only group and group 4 the PDT+1-CaO2 NPs group. For group 2, mice received an intratumoural injection (100 μL) of Rose Bengal (0.1 mg/mL) in a PBS solvent and the tumour was then exposed to a LED emitting white light for 3 min (0.05 J/cm^2). Group 3 received a tail vein injection (100 μL) of 1-CaO2 NPs in a PBS vehicle (2 mg/mL) while group 4 also received a tail vein injection (100 μL) of 1-CaO2 NPs in a PBS vehicle (2 mg/mL) in addition to an intratumoural injection (100 μL) of Rose Bengal (0.1 mg/mL) and light exposure as described for group 2. The tumour volume was measured daily over the course of 6 days using callipers.

In the case of `O=C([O-])c1c(Cl)c(Cl)c(Cl)c(Cl)c1-c1c2cc(I)c(=O)c(I)c-2oc2c(I)c([O-])c(I)cc12.[Na+].[Na+]` [Rose Bengal], the reduction in viability [1] is reported as 10.8% and the “difference in tumour volume relative to untreated control animals” value [2] is reported as “no significant difference”.

— patent US11235000B2, “Calcium peroxides nanoparticles as adjuvant therapy” (UNIVERSITY OF ULSTER, priority 2017, dated 2022)
